Several values for one entry are separate records, joined by “and”; a condition that tells them apart may be missing. Identical values can stand only once. Inconclusive results and toxic doses are left out.
System: P388 leukemia ip, CD2F1 mice, survival T/C
Experiment: NCI In Vivo Anticancer Drug Screen. Data for tumor model P388 Leukemia (intraperitoneal) in CD2F1 (CDF1) mice
Conditions: endpoint: median survival time, higher = longer survival
Summary of the method: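 Mice carrying the transplanted tumor received test compound or vehicle. Survival was recorded in each group, and the value is the treated-group measurement divided by that of the vehicle-treated control group.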

[1] = dose: 60.0 mg/kg/injection, schedule: Q01DX005 (ip), vehicle: saline with Tween-80
[2] = dose: 120.0 mg/kg/injection, schedule: Q01DX005 (ip), vehicle: saline with Tween-80
[3] = dose: 240.0 mg/kg/injection, schedule: Q01DX005 (ip), vehicle: saline with Tween-80
[4] = dose: 200.0 mg/kg/injection, schedule: Q01DX009 (ip), vehicle: saline with Tween-80
[5] = dose: 50.0 mg/kg/injection, schedule: Q01DX009 (ip), vehicle: saline with Tween-80
[6] = dose: 100.0 mg/kg/injection, schedule: Q04DX002 (ip), vehicle: Klucel (hydroxypropylcellulose) (HPC)
[7] = dose: 60.0 mg/kg/injection, schedule: Q01DX005 (ip), vehicle: Klucel (hydroxypropylcellulose) (HPC)
[8] = dose: 120.0 mg/kg/injection, schedule: Q01DX005 (ip), vehicle: Klucel (hydroxypropylcellulose) (HPC)
[9] = dose: 50.0 mg/kg/injection, schedule: Q01DX005 (ip), vehicle: Klucel (hydroxypropylcellulose) (HPC)
[10] = dose: 100.0 mg/kg/injection, schedule: Q01DX005 (ip), vehicle: Klucel (hydroxypropylcellulose) (HPC)
[11] = dose: 200.0 mg/kg/injection, schedule: Q01DX005 (ip), vehicle: Klucel (hydroxypropylcellulose) (HPC)
[12] = dose: 100.0 mg/kg/injection, schedule: Q04DX002 (ip), vehicle: saline
[13] = dose: 200.0 mg/kg/injection, schedule: Q04DX002 (ip), vehicle: saline
[14] = dose: 400.0 mg/kg/injection, schedule: Q04DX002 (ip), vehicle: saline
[15] = dose: 50.0 mg/kg/injection, schedule: Q01DX005 (ip), vehicle: saline with Tween-80
[16] = dose: 100.0 mg/kg/injection, schedule: Q01DX005 (ip), vehicle: saline with Tween-80
[17] = dose: 100.0 mg/kg/injection, schedule: Q04DX003 (ip), vehicle: saline
[18] = dose: 200.0 mg/kg/injection, schedule: Q04DX003 (ip), vehicle: saline

O=C1CC2(C(=O)O1)c1ccccc1-c1ccccc12
T/C [1]: 111 % of control
T/C [2]: 105 % of control
T/C [3]: 112 % of control

N#CC(NCCNC(C#N)c1ccccc1)c1ccccc1 (stereo unspecified)
T/C [1]: 96 % of control
T/C [2]: 90 % of control
T/C [3]: 88 % of control

O=[N+]([O-])c1ccc(Sc2ccccn2)nc1Sc1ccccn1
T/C (dose: 0.79 mg/kg/injection, schedule: Q01DX009 (ip), vehicle: saline with Tween-80): 100 % of control
T/C (dose: 1.56 mg/kg/injection, schedule: Q01DX009 (ip), vehicle: saline with Tween-80): 104 % of control
T/C (dose: 3.12 mg/kg/injection, schedule: Q01DX009 (ip), vehicle: saline with Tween-80): 100 % of control
T/C [4]: 92 % of control

C=C(C)C1=CC(=O)C(C)(C)O1
T/C (dose: 12.5 mg/kg/injection, schedule: Q01DX009 (ip), vehicle: saline with Tween-80): 106 % of control
T/C (dose: 25.0 mg/kg/injection, schedule: Q01DX009 (ip), vehicle: saline with Tween-80): 105 % of control
T/C [5]: 102 % of control

Cc1c(N=Nc2ccc([N+](=O)[O-])cc2)nc2scc(-c3ccccc3)n12
T/C (dose: 25.0 mg/kg/injection, schedule: Q04DX002 (ip), vehicle: Klucel (hydroxypropylcellulose) (HPC)): 121 % of control
T/C [6]: 86 % of control

O=C(NC1COB(c2ccccc2)OC1c1ccc([N+](=O)[O-])cc1)C(Cl)Cl (stereo unspecified)
T/C [7]: 97 % of control
T/C [8]: 97 % of control
T/C (dose: 240.0 mg/kg/injection, schedule: Q01DX005 (ip), vehicle: Klucel (hydroxypropylcellulose) (HPC)): 99 % of control

CC1CCC(C(C)C)C(NC(=O)c2ccncc2)C1 (stereo unspecified)
T/C [9]: 100 % of control
T/C [10]: 101 % of control
T/C [11]: 105 % of control

Cc1cc2c(cc1C)NC1=C(N2)OC(c2ccccc2C)C1=O (stereo unspecified)
T/C [7]: 96 % of control
T/C [8]: 106 % of control

COc1cc2c(cc1OC)C(C)P(C)(=O)CC2O (stereo unspecified)
T/C (dose: 100.0 mg/kg/injection, schedule: Q04DX002 (ip), vehicle: saline with Tween-80): 100 % of control
T/C [12]: 109 % of control
T/C (dose: 200.0 mg/kg/injection, schedule: Q04DX002 (ip), vehicle: saline with Tween-80): 107 % of control
T/C [13]: 98 % of control
T/C (dose: 400.0 mg/kg/injection, schedule: Q04DX002 (ip), vehicle: saline with Tween-80): 100 % of control
T/C [14]: 98 % of control

O=C(O)c1cccc2c1Cc1ccccc1-2
T/C [9]: 94 % of control
T/C [10]: 92 % of control
T/C [11]: 88 % of control

CC(C)(C)c1cc(C2C(=O)c3ccccc3C2=O)cc(C(C)(C)C)c1O
T/C [12]: 110 % of control
T/C [13]: 107 % of control
T/C [14]: 107 % of control

C=C1C(O)C2(O)OCC34C(CC5C(C)=CC(=O)C(O)C5(C)C23)OC(=O)C(O)C14O (stereo unspecified)
T/C (dose: 6.25 mg/kg/injection, schedule: Q01DX009 (ip), vehicle: saline): 93 % of control

N#CCc1ccc(C(C#N)C(=O)CCC(=O)C(C#N)c2ccc(CC#N)cc2)cc1 (stereo unspecified)
T/C [15]: 100 % of control
T/C [16]: 100 % of control

CC[n+]1ccc(Nc2ccc(/C=C/c3ccc4cc(Nc5cc[n+](CC)cc5)ccc4[n+]3CC)cc2)cc1
T/C (dose: 3.3 mg/kg/injection, schedule: Q04DX003 (ip), vehicle: saline sonified): 113 % of control

CCOC(=O)/C=C1/SC(N2CCCCC2)C(=O)N1CC (stereo unspecified)
T/C (dose: 50.0 mg/kg/injection, schedule: Q01DX009 (ip), vehicle: Klucel (hydroxypropylcellulose) (HPC)): 106 % of control
T/C (dose: 100.0 mg/kg/injection, schedule: Q01DX009 (ip), vehicle: Klucel (hydroxypropylcellulose) (HPC)): 110 % of control
T/C (dose: 200.0 mg/kg/injection, schedule: Q01DX009 (ip), vehicle: Klucel (hydroxypropylcellulose) (HPC)): 110 % of control

N=C(N)c1ccc(-c2ccc(-c3ccc(C(=N)N)cc3)o2)cc1
T/C (dose: 3.13 mg/kg/injection, schedule: Q01DX009 (ip), vehicle: saline with Tween-80): 94 % of control
T/C (dose: 6.25 mg/kg/injection, schedule: Q01DX009 (ip), vehicle: saline with Tween-80): 102 % of control

CC1(C)SC(=O)C(=O)S1
T/C [17]: 103 % of control
T/C [18]: 93 % of control

c1ccc2c(c1)ccc1c2c[n+](CCCCCCCC[n+]2cc3c4ccccc4ccc3c3ccccc32)c2ccccc12
T/C (dose: 0.78 mg/kg/injection, schedule: Q01DX009 (ip), vehicle: distilled water + Tween-80): 172 % of control
T/C (dose: 1.56 mg/kg/injection, schedule: Q01DX009 (ip), vehicle: distilled water + Tween-80): 163 % of control
T/C (dose: 3.13 mg/kg/injection, schedule: Q01DX009 (ip), vehicle: distilled water + Tween-80): 204 % of control
T/C (dose: 6.25 mg/kg/injection, schedule: Q01DX009 (ip), vehicle: distilled water + Tween-80): 209 % of control

COc1ccc2c(c1OC)C(N1CCc3cc4c(cc3C1=O)OCO4)OC2=O (stereo unspecified)
T/C (dose: 12.5 mg/kg/injection, schedule: Q01DX001 (ip), vehicle: saline + alcohol): 89 % of control
T/C (dose: 25.0 mg/kg/injection, schedule: Q01DX001 (ip), vehicle: saline + alcohol): 87 % of control
T/C (dose: 50.0 mg/kg/injection, schedule: Q01DX001 (ip), vehicle: saline + alcohol): 87 % of control

CCn1c(C)nc([N+](=O)[O-])c1Sc1ncn[nH]1
T/C (dose: 25.0 mg/kg/injection, schedule: Q01DX005 (ip), vehicle: Klucel (hydroxypropylcellulose) (HPC)): 118 % of control
T/C [9]: 115 % of control and 120 % of control
T/C [10]: 121 % of control

COc1cc(Cc2n[nH]c(=S)n2-c2ccccc2)c(S(N)(=O)=O)cc1OC
T/C [1]: 102 % of control
T/C [2]: 95 % of control
T/C [3]: 94 % of control

C=C(C)C(=O)NC(Cc1cnc[nH]1)C(=O)O (stereo unspecified)
T/C (dose: 50.0 mg/kg/injection, schedule: Q01DX009 (ip), vehicle: saline): 106 % of control
T/C (dose: 100.0 mg/kg/injection, schedule: Q01DX009 (ip), vehicle: saline): 107 % of control
T/C (dose: 200.0 mg/kg/injection, schedule: Q01DX009 (ip), vehicle: saline): 107 % of control

O=[N+]([O-])c1ccc2nccc(Cl)c2c1
T/C (dose: 12.5 mg/kg/injection, schedule: Q01DX009 (ip), vehicle: Klucel (hydroxypropylcellulose) (HPC)): 95 % of control
T/C (dose: 25.0 mg/kg/injection, schedule: Q01DX009 (ip), vehicle: Klucel (hydroxypropylcellulose) (HPC)): 100 % of control

O=C(O)CC[S-].[Ag+]
T/C [17]: 100 % of control
T/C [18]: 100 % of control
T/C (dose: 400.0 mg/kg/injection, schedule: Q04DX003 (ip), vehicle: saline): 95 % of control

C=C(C)C(=O)OC1CCC2Cc3occ(C)c3C(OC(=O)C=C(C)C)C2(C)C1C (stereo unspecified)
T/C (dose: 10.0 mg/kg/injection, schedule: Q01DX009 (ip), vehicle: saline with Tween-80): 103 % of control
T/C (dose: 20.0 mg/kg/injection, schedule: Q01DX009 (ip), vehicle: saline with Tween-80): 101 % of control
T/C (dose: 40.0 mg/kg/injection, schedule: Q01DX009 (ip), vehicle: saline with Tween-80): 100 % of control
T/C (dose: 80.0 mg/kg/injection, schedule: Q01DX009 (ip), vehicle: saline with Tween-80): 98 % of control

CNC(=O)c1ccccc1NC(=O)c1ccccc1[N+](=O)[O-]
T/C [6]: 102 % of control
T/C (dose: 200.0 mg/kg/injection, schedule: Q04DX002 (ip), vehicle: Klucel (hydroxypropylcellulose) (HPC)): 107 % of control
T/C (dose: 400.0 mg/kg/injection, schedule: Q04DX002 (ip), vehicle: Klucel (hydroxypropylcellulose) (HPC)): 103 % of control

CCOC1OCN(C2CCCCC2)CC1(C)C (stereo unspecified)
T/C [5]: 109 % of control
T/C [4]: 110 % of control

S=c1nc(-c2ccccn2)c(-c2ccccn2)n[nH]1
T/C [15]: 116 % of control and 117 % of control
T/C [16]: 121 % of control
T/C (dose: 200.0 mg/kg/injection, schedule: Q01DX005 (ip), vehicle: saline with Tween-80): 119 % of control and 120 % of control
T/C (dose: 400.0 mg/kg/injection, schedule: Q01DX005 (ip), vehicle: saline with Tween-80): 120 % of control

O=C1CSCc2sccc21
T/C [1]: 94 % of control
T/C [2]: 106 % of control
T/C [3]: 101 % of control

O=C(Nc1cc(Cl)ccc1Cl)Nc1ccc(Cl)cc1C(=O)c1ccccc1
T/C (dose: 15.0 mg/kg/injection, schedule: Q01DX005 (ip), vehicle: saline with Tween-80): 89 % of control
T/C (dose: 30.0 mg/kg/injection, schedule: Q01DX005 (ip), vehicle: saline with Tween-80): 90 % of control
T/C [3]: 90 % of control

From PubChem BioAssay AID330 (DTP/NCI, 2004)
